# Results taken from US20120071475A1, “UREA DERIVATIVES HAVING PI3K-INHIBITING ACTIVITY” (SHIONOGI & CO., LTD., priority 2009, published 2012).
# How the values were obtained:
# hERG channel (IKr) = target: T1, hERG channel (IKr) (Homo sapiens, UniProt Q12809); test: hERG test (whole-cell patch-clamp, IKr in HEK293 cells); type: cell-based; settings: human, HEK293 cells expressing hERG channel, pH 7.4, inhibition of maximum tail current (IKr), compound 1 μM
# T1 construct: expressed in transfected cells; host or cells: HEK293
# T1 sequence (Q12809 whole entry): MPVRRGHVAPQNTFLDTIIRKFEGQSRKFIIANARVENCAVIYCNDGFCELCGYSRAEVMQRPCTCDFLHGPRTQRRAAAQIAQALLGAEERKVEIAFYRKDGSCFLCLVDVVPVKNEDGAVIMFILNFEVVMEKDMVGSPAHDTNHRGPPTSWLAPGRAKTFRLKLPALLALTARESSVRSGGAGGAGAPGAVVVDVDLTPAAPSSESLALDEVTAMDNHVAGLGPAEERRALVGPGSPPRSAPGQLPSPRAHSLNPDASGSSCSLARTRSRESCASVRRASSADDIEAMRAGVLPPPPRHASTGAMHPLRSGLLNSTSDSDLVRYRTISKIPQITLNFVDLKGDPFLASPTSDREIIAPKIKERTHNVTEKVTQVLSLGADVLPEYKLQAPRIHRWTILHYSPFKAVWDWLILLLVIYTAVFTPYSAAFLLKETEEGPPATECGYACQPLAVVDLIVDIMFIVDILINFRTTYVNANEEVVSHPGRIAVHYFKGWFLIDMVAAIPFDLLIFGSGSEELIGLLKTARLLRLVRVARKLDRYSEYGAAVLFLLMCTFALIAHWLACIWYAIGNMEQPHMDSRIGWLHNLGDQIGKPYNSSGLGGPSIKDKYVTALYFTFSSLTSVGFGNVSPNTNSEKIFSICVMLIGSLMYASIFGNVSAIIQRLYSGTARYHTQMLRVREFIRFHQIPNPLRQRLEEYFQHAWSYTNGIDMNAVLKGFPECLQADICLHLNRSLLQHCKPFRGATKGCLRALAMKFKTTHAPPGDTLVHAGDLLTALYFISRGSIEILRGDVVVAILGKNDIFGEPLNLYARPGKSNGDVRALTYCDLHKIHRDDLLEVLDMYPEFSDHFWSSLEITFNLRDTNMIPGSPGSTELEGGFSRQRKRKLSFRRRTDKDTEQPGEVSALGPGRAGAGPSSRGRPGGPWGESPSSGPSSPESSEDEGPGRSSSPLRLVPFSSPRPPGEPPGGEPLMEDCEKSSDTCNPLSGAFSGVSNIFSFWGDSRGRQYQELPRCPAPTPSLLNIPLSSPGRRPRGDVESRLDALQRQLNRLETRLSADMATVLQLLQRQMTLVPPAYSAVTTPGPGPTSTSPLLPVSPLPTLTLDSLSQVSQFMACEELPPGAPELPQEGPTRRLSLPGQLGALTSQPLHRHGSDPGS
# Text: For the purpose of risk evaluation of QT interval extension of electrocardiogram, the activity on delayed rectification K^+ current (IKr), which plays an important role in a cardiac ventricle repolarization process, was examined using the HEK293 cell that was made to express human ether-a-go-go related gene (hERG) channel.
# Using an automatic patch-clamp system (PatchXpress 7000A, Axon Instruments Inc.), by a whole-cell patch-clamp method, after the cell was maintained at a membrane potential of −80 mV, IKr induced upon applying depolarizing stimulation of +50 mV for 2 seconds and further applying repolarizing stimulation of −50 mV for 2 seconds was recorded. After generated electric current became stable, a test substance dissolved at an intended concentration in extracellular fluid (137 mmol/L NaCl, 4 mmol/L KCl, 1.8 mmol/L CaCl2.2H2O, 1 mmol/L MgCl2.6H2O, 10 mmol/L glucose, 10 mmol/L HEPES (4-(2-hydroxyethyl)-1-piperazineethanesulfonic acid), pH=7.4) was applied to the cell for 10 minutes under room temperature condition. From the obtained IKr, the absolute value of the maximum tail current was measured using analysis software (DataXpress ver. 1, Molecular Devices Corporation) and the value of the electric current in a maintained membrane potential as baseline. Moreover, an inhibition ratio for the maximum tail current prior to the application of the test substance was calculated and then compared with a group of media-application (0.1% dimethylsulfoxide solution) to evaluate influence of the test substance on IKr.
# PI3Kγ [1] = target: T2, PI3Kγ (Homo sapiens, UniProt P48736); test: PI3Kγ inhibitory activity (PI3-kinase HTRF assay, inhibition ratio); type: biochemical; settings: 0.5 h, compound at 10 μmol/L; read-out: PI3Kg Inhibition Ratio % (10 μM)
# T2 sequence (P48736 whole entry, species assumed): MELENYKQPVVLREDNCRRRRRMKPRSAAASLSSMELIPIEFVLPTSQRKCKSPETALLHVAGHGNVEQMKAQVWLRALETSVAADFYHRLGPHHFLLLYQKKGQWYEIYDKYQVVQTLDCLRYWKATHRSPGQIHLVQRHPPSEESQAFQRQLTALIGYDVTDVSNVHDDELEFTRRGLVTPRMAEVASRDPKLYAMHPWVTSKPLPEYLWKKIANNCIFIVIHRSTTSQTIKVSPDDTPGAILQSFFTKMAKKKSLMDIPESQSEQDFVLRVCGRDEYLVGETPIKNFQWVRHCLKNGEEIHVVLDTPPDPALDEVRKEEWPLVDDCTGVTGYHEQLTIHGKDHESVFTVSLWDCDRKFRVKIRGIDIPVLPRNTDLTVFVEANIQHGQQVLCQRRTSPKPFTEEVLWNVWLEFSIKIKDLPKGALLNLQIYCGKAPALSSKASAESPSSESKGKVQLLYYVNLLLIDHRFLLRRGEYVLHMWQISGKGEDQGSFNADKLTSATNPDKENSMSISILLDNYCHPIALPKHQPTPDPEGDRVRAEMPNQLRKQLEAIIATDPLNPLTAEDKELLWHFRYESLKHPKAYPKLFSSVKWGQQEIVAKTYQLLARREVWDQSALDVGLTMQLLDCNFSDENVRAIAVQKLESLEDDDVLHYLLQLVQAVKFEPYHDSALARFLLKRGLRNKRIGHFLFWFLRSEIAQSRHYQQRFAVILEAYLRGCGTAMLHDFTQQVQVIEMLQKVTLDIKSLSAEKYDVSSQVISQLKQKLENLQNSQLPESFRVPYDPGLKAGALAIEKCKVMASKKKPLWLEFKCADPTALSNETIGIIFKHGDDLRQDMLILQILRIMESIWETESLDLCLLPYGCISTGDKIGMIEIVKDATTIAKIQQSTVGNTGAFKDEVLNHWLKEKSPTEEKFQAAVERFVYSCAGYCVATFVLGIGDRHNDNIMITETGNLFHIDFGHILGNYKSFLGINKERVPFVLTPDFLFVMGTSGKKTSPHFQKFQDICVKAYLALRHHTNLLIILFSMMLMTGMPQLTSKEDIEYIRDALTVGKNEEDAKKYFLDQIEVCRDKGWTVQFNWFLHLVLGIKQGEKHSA
# Procedure: For each compound synthesized in the above Examples, PI3Kγ inhibitory activity was measured.
# The PI3Kγ inhibitory activity of a compound was evaluated using PI3-kinase HTRF™ assay (Millipore) according to the following procedure:
# To each well of a testing plate, 5 μL of a compound solution containing 10% DMSO (40 μmol/L as the concentration of the compound), 5 μL of a substrate solution (40 μmol/L phosphatidylinositol (4,5)-bisphosphate, 20 mmol/L MgCl2, 10 mmol/L DTT), and 5 μL of an enzyme solution (80 μg/mL PI-3 kinase y, 10 mmol/L MgCl2, 5 mmol/L DTT) were added, and then allowed to stand for 10 minutes.
# Then, 5 μL of a reaction solution (40 μmol/L ATP, 10 mmol/L MgCl2, 5 mmol/L DTT) was added thereto. After reacting for 30 minutes at room temperature, 5 μL of a solution containing EDTA and biotinylated phosphatidylinositol (3,4,5)-triphosphate was added to quench the reaction.
# 5 μL of a detection reagent containing a europium-labeled anti-GST antibody, the GST-tagged PH domain, and allophycocyanin-labeled streptavidin was added thereto. After 18 hours, HTRF (excitation wavelength: 330 nm, measured wavelengths: 620 nm and 665 nm) was measured.
# HTRF ratio was defined as the value obtained by dividing the amount of fluorescence obtained at the measured wavelength 665 nm by the amount of fluorescence obtained at 620 nm. The HTRF ratio in the absence of a compound was defined as 100% activity and the HTRF ratio in the absence of PI-3 kinase y was defined as 0% activity to calculate an inhibition ratio, which was defined as the PI3Kγ inhibitory activity of a compound at 10 μmol/L.
# CYP3A4 = target: T3, CYP3A4 (Homo sapiens, UniProt P08684); test: CYP3A4 fluorescence MBI test; type: in vitro ADME; settings: difference in IC50 with 0 or 30 minutes pre-reaction; CYP3A4 expressed in E. coli, substrate 7-BFC
# T3 construct: host or cells: E. coli
# T3 sequence (P08684 whole entry): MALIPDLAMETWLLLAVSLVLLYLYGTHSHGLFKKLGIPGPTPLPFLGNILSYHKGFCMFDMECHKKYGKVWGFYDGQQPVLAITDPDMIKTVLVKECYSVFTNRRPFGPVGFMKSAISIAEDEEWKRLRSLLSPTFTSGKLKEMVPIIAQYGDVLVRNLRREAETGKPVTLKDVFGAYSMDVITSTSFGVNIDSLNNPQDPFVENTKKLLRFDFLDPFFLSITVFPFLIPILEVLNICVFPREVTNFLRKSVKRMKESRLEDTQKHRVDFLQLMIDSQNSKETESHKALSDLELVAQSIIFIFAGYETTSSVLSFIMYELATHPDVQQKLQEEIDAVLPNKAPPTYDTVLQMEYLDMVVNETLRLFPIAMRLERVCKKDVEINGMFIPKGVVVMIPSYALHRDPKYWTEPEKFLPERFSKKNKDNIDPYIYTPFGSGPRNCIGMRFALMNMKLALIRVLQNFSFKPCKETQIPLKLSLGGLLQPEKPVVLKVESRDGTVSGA
# Procedure: The CYP3A4 fluorescence MBI test is a test to examine the enhancement of CYP3A4 inhibition of a compound by a metabolic reaction. The test was performed using as an index, a reaction to produce a metabolite 7-hydroxytrifluoromethylcoumarin (HFC) which emits fluorescence, in which CYP3A4 expressed in E. coli was used as an enzyme and 7-benzyloxytrifluoromethylcoumarin (7-BFC) is debenzylated by CYP3A4 enzyme.
# The reaction conditions are as follows: substrate: 5.6 μmol/L 7-BFC; pre-reaction time; 0 or 30 minutes; reaction time: 15 minutes; reaction temperature: 25° C. (room temperature); content of CYP3A4 (an enzyme expressed in E. coli): […] at the time of a pre-reaction and […] (when diluted 10 times) at the time of a reaction; the concentrations of a test drug: 0.625, 1.25, 2.5, 5, 10, and 20 μmol/L (6 points).
# In a 96-well plate, an enzyme solution and a test drug solution were added as a pre-reaction solution into K-Pi buffer solution (pH 7.4) in the aforementioned ratio. A portion thereof was transferred to another 96-well plate to be diluted ten times with a substrate and a K-Pi buffer solution. A coenzyme, NADPH, was then added to start a reaction, which is the index (this is without a pre-reaction). After reacting for a predetermined time, 4:1 of acetonitrile: 0.5 mol/L Tris (trishydroxyaminomethane) was added to quench the reaction. To the remaining pre-reaction solution, NADPH was added to start a pre-reaction (this is with a pre-reaction). After pre-reacting for a predetermined time, a portion thereof was transferred to another plate to be diluted ten times with a substrate and K-Pi buffer solution, and thereby the index reaction is started. After reacting for a predetermined time, 4:1 of acetonitrile:0.5 mol/L Tris (trishydroxyaminomethane) was added to quench the reaction. For each plate in which the index reaction was carried out, the fluorescence value of a metabolite 7-HFC was measured with a fluorescent plate reader (Ex=420 nm, Em=535 nm).
# The case wherein only DMSO (a solvent which dissolved a drug) was added to a reaction system was defined as a control (100%). When a test drug solution was added, the remaining activity (%) at each concentration was calculated, and then IC50 was calculated with a concentration and an inhibition ratio by an inverse estimation using a logistic model. When the difference in IC50 value is 5 μmol/L or more, the compound is shown as (+). When 3 μmol/L or less, the compound is shown as (−).
# [2] = Metabolic stability test (pooled human liver microsome); type: in vitro ADME; settings: percentage of test compound remained after 30 minutes, pooled human liver microsome 0.5 mg protein/mL, 1 mmol/L NADPH, 37° C., compound 0.5 μM
# Procedure: After a subject compound was reacted for a certain time using a pooled human liver microsome commercially available, a reacted sample and an unreacted sample are compared to calculate a survival ratio, and then the degree of metabolism in the liver was evaluated.
# 0.2 mL of a buffer solution (50 mmol/L of Tris-HCl in pH 7.4, 150 mmol/L of potassium chloride, and 10 mmol/L of magnesium chloride) containing a human liver microsome of 0.5 mg protein/mL was reacted in the presence of 1 mmol/L NADPH at 37° C. for 0 or 30 minutes (oxidative reaction). After reacting, 50 μL of the reaction solution was added to 100 μL of a solution of methanol/acetonitrile (1/1 (v/v)), mixed, and then centrifuged at 3000 rpm for 15 minutes. The test compound in the supernatant was quantitated with LC/MS/MS. The amount of the compound at a reaction time of 0 minute was defined as 100% and, based on that, the percentage of the test compound remained after reacting for 30 minutes was calculated.
# PI3Kγ [3] = target: T2, PI3Kγ; test: PI3Kγ inhibitory activity (Ki value); type: biochemical; settings: read-out: PI3Kγ Ki value
# Procedure: The PI3Kγ inhibitory activity (Ki value) of a compound was evaluated according to the following procedure:
# 5 μL of a compound solution containing 10% DMSO and […] of a compound was changed to 5 μL of a compound solution containing 10% DMSO and either 200, 64, 20, 6.4, 2, 0.64, or 0.20 μmol/L of the compound (optionally, this is diluted to a lower concentration). Using a method similar to the method for measuring PI3Kγ inhibitory activity, inhibition ratios of PI3Kγ were measured in the presence of the compound at 50, 16, 5, 1.6, 0.5, 0.16, and 0.05 μmol/L (optionally, a lower concentration). Then an IC50 value was calculated by a logistic approximation method or the linear regression method using two concentrations that cross 50% inhibition. Separately, the ATP concentration in the reaction solution (40 μmol/L ATP, 10 mmol/L MgCl2, 5 mmol/L DTT) at the time of the start of a reaction in the absence of the compound was changed to 80, 40, 20, 10, 5, 2.5, 1.25, or 0.625 μmol/L. Then, HTRF ratios were measured by a similar method. The value obtained by subtracting the HTRF ratio at each ATP concentration from the HTRF ratio in the absence of PI-3 kinase y was defined as the value obtained by multiplying reaction rate (v) at each ATP concentration with a constant. The Michaelis-Menten constant Km was then calculated by the Lineweaver-Burk plot method. The Ki value of a compound was calculated by the following formula wherein “μM” denotes “μmol/L.”
# Ki value ═IC50 value/(1+test ATP concentration (μM)/Km (μM))
inhibition at 10 µM (PI3Kγ [1]) [%],hLMS_ox(at 0.5 μM) % [2] [%],Ki (PI3Kγ [3]) [µM],SMILES,"inhibition at 10 min, 1 µM (hERG channel (IKr)) [%]",MBI (CYP3A4)
92,,,COc1cc(N2CCc3nc(NC(=O)Nc4ccccc4C(=O)NC4CC4)sc3C2)nc(OC)n1 [Compound I-16],9.3,
≥ 95,,,COc1cc(N2CCc3nc(NC(=O)NC4=C(C(=O)NC(C)C)CCC4)sc3C2)nc(OC)n1 [Compound I-29],8.7,"(−) (When 3 μmol/L or less, the compound is shown as (−))"
,,,COc1nc(N(C)C)cc(N2CCc3nc(NC(=O)Nc4ccccc4C(=O)NC(C)C)sc3C2)n1 [Compound I-41],5.6,
,,,COc1cc(N2CCc3nc(NC(=O)Nc4ccccc4OC(C)C)sc3C2)nc(OC)n1 [Compound I-48],3.2,
,,,COc1nc(Cl)cc(N2CCc3nc(NC(=O)Nc4ccccc4C(=O)NC(C)C)sc3C2)n1 [Compound I-53],5.1,"(−) (When 3 μmol/L or less, the compound is shown as (−))"
,,,COc1cc(N2CCc3nc(NC(=O)Nc4ccccc4OCCC(C)C)sc3C2)nc(OC)n1 [Compound I-55],7.7,
,83.5,,CCNC(=O)c1ccccc1NC(=O)Nc1nc2c(s1)CN(c1cc(OC)nc(OC)n1)CC2 [Compound I-57],5.3,"(−) (When 3 μmol/L or less, the compound is shown as (−))"
,82.1,,COc1cc(N2CCc3nc(NC(=O)Nc4ccccc4C(=O)NC(C)C)sc3C2)cnc1OC [Compound I-80],5.5,
,,,CCNC(=O)c1ccncc1NC(=O)Nc1nc2c(s1)CN(c1cc(Cl)nc(OC)n1)CC2 [Compound I-92],2.4,
≥ 95,,,CCNC(=O)c1ccccc1NC(=O)Nc1nc2c(s1)CN(c1cc(Cl)nc(OC)n1)CC2 [Compound I-93],6.8,"(−) (When 3 μmol/L or less, the compound is shown as (−))"
≥ 95,,,CCNC(=O)c1ccncc1NC(=O)Nc1nc2c(s1)CN(c1cc(OC)nc(OC)n1)CC2 [Compound I-94],6.8,"(−) (When 3 μmol/L or less, the compound is shown as (−))"
≥ 95,,,COc1nccc(N2CCc3nc(NC(=O)Nc4ccccc4C(=O)NC(C)C)sc3C2)n1 [Compound I-95],3.7,
≥ 95,91.9,,COc1cc(N2CCc3nc(NC(=O)Nc4ccccc4C(=O)N[C@@H](C)CO)sc3C2)nc(OC)n1 [Compound I-101],9.6,
≥ 95,84.2,,COc1cc(N2CCc3nc(NC(=O)Nc4ccccc4C(=O)N[C@H](C)CO)sc3C2)nc(OC)n1 [Compound I-102],8.8,
,,,COc1cncc(-c2ccc3nc(NC(=O)Nc4ccccc4C(=O)NC(C)C)cn3n2)c1 [Compound I-111],2.4,"(−) (When 3 μmol/L or less, the compound is shown as (−))"
,,,CCCCc1ccccc1NC(=O)Nc1nc2c(s1)CN(c1cc(OC)nc(OC)n1)CC2 [Compound I-150],3,
94,,0.48,Cc1nc(NC(=O)Nc2ccccc2OCCC(C)C)sc1-c1csc(S(=O)(=O)N(C)CCN(C)C)c1 [Compound I-192],,
≥ 95,,0.68,COc1cncc(-c2cc(NC(=O)Nc3ccccc3OCCC(C)C)nn2C)c1 [Compound I-221],,
